Measurements reported in ChEMBL document CHEMBL1134419, “Solution-Phase parallel synthesis of 5-carboxamido 1-benzyl-3-(3-dimethylaminopropyloxy)-1H-pyrazoles as activators of soluble guanylate cyclase with improved oral bioavailability” (Bioorg Med Chem Lett, 2001).

Legend:
[1] = Bioavailability in rat (dose 2 mg/kg p.o.); type: ADME, organism-based; settings: in vivo, po
[2] = Cmax at the dose of 2 mg/Kg administered perorally in rats; type: ADME, organism-based; design: dose 2 mg/Kg, route oral; settings: rat, in vivo, po
[3] = Tmax at the dose of 2 mg/Kg administered perorally in rats; type: ADME, organism-based; settings: rat, in vivo, po
[4] = tested on: Rattus norvegicus; test: Area under curve at the dose of 2 mg/Kg administered perorally in rats; type: ADME, organism-based; settings: in vivo, po
[5] = Stimulation of soluble guanylate cyclase (sGC) using baculovirus expressed and partially purified bovine sGC at 1 uM concentration relative to benzydamine
[6] = species: Homo sapiens; test: Concentration required to inhibit collagen induced platelet aggregation by 50%; type: functional, organism-based
[7] = species: Homo sapiens; test: Percent inhibition of collagen stimulated platelet aggregation at a concentration of 10 uM; type: functional
[8] = Percent bioavailability at the dose of 5 mg/Kg administered perorally in rats; type: ADME, organism-based; settings: rat, in vivo, po
[9] = Cmax at the dose of 5 mg/Kg administered perorally in rats; type: ADME, organism-based; design: dose 5 mg/Kg, route oral; settings: rat, in vivo, po
[10] = Tmax at the dose of 5 mg/Kg administered perorally in rats; type: ADME, organism-based; settings: rat, in vivo, po
[11] = tested on: Rattus norvegicus; test: Area under curve at the dose of 5 mg/Kg administered perorally in rats; type: ADME, organism-based; settings: in vivo, po
[12] = biological target: Soluble guanylate cyclase (Homo sapiens, UniProt O75343+P33402+Q02108+Q02153); test: The cGMP produced by compound was expressed as a ratio between the percentage of the DEA/NO response for the compound; type: protein-complex assay
Soluble guanylate cyclase, sequence (Q02153 whole entry): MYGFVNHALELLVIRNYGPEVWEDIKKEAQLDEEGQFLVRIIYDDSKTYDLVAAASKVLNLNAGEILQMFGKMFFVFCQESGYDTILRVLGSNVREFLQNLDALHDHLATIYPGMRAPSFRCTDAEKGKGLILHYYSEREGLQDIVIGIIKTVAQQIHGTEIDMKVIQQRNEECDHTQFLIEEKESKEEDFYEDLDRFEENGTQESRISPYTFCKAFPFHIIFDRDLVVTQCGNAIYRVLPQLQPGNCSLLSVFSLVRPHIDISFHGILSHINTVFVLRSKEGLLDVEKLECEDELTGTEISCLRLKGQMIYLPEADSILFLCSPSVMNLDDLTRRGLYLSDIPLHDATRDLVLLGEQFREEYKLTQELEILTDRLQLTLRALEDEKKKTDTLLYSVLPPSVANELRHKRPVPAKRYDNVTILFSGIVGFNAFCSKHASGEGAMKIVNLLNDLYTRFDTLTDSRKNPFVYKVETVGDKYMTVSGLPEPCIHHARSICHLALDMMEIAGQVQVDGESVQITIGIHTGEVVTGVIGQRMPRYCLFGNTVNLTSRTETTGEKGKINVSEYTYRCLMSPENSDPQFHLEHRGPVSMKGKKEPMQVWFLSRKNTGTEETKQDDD
Soluble guanylate cyclase, sequence (O75343 whole entry): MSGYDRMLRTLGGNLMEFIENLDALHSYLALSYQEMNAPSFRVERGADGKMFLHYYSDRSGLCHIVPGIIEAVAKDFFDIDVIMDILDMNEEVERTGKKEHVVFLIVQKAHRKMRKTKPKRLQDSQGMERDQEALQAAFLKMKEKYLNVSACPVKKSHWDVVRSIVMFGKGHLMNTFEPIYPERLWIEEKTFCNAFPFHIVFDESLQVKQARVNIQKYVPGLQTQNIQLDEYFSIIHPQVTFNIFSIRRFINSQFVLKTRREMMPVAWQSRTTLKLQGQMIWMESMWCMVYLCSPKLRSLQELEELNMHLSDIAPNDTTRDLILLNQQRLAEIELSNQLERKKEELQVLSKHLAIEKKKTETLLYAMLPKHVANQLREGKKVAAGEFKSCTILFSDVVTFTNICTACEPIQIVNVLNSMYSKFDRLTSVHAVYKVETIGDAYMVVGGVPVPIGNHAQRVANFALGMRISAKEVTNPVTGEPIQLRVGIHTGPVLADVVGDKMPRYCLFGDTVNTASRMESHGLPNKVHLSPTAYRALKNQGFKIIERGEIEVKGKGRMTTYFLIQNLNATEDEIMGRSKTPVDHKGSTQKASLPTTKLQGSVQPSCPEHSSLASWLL
Soluble guanylate cyclase, sequence (P33402 whole entry): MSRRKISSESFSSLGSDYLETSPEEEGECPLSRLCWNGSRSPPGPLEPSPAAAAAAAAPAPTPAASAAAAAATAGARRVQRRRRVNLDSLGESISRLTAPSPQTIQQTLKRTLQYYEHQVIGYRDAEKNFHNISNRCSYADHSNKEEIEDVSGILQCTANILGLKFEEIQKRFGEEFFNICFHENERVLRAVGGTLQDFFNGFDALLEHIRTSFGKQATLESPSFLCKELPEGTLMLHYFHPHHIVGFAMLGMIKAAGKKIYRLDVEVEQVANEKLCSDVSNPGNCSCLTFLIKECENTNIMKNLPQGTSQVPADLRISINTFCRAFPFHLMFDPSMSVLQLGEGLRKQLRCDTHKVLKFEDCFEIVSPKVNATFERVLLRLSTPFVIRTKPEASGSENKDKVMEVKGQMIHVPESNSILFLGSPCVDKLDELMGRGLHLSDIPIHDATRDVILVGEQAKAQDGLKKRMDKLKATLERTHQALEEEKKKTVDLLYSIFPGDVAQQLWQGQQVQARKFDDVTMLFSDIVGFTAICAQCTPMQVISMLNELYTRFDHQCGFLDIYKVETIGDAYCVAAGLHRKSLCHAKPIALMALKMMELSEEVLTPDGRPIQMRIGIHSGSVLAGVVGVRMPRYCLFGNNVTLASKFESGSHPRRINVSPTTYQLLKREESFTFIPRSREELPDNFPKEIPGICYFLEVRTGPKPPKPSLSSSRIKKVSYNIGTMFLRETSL
Soluble guanylate cyclase, sequence (Q02108 whole entry): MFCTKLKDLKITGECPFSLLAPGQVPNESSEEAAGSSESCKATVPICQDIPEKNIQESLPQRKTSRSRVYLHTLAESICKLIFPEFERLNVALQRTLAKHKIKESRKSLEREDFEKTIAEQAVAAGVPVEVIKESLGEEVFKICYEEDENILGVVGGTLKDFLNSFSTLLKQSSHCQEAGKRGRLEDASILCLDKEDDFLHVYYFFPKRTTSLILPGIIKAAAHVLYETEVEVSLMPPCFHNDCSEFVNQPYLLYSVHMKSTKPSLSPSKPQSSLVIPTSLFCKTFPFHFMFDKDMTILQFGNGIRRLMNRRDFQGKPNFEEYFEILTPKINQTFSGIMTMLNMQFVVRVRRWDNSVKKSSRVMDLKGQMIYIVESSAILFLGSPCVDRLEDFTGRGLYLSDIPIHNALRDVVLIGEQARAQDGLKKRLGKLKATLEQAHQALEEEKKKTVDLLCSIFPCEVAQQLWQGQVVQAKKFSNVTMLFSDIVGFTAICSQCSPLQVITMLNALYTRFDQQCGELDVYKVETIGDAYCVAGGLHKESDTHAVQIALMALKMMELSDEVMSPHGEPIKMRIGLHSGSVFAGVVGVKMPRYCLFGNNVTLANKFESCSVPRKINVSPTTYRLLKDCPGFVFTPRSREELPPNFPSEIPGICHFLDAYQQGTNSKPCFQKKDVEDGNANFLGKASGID

SMILES | Relative enzyme activity [5] | inhibition at 10 µM [7] | further results
CN(C)CCCOc1cc(C(=O)Nc2ccc(Br)cc2)n(Cc2ccccc2)n1 | 0.87 | 90% | bioavailability [1]: 17%; Cmax [2]: 12.1 ng/mL; Tmax [3]: 5 h; AUC [4]: 76.9 ng·h/mL; IC50 [6]: 3.58 µM
CN(C)CCCOc1cc(C(=O)Nc2cc(F)cc(C(F)(F)F)c2)n(Cc2ccccc2)n1 | 0.9 | 43% | 
CN(C)CCCOc1cc(C(=O)Nc2nc3ccccc3[nH]2)n(Cc2ccccc2)n1 | 0.74 | 13% | 
COc1cc(NC(=O)c2cc(OCCCN(C)C)nn2Cc2ccccc2)cc(OC)c1OC | 0.96 | 66% | 
CN(C)CCCOc1cc(C(=O)Nc2ccc3ccccc3n2)n(Cc2ccccc2)n1 | 0.97 | 57% | 
CN(C)CCCOc1cc(C(=O)Nc2ccc(OC(F)(F)F)cc2)n(Cc2ccccc2)n1 | 0.93 | 85% | 
CN(C)CCCOc1cc(C(=O)Nc2ccc3c(c2)C(=O)N(C)C3=O)n(Cc2ccccc2)n1 | 0.81 | 64% | 
COc1cc(NC(=O)c2cc(OCCCN(C)C)nn2Cc2ccccc2)cc(OC)c1 | 0.72 | 87% | 
CN(C)CCCOc1cc(C(=O)Nc2cccc(-c3cnco3)c2)n(Cc2ccccc2)n1 | 0.71 | 83% | 
CN(C)CCCOc1cc(C(=O)Nc2cc(F)cc(F)c2)n(Cc2ccccc2)n1 | 0.76 | 44% | 
CN(C)CCCOc1cc(C(=O)Nc2cnc3ccccc3c2)n(Cc2ccccc2)n1 | 0.91 | 95% | bioavailability [1]: 19%; Cmax [2]: 14.3 ng/mL; Tmax [3]: 5 h; AUC [4]: 95 ng·h/mL; IC50 [6]: 3.27 µM
COc1ccc(NC(=O)c2cc(OCCCN(C)C)nn2Cc2ccccc2)cc1 | 1.1 | 83% | bioavailability [8]: 12%; Cmax [9]: 6.4 ng/mL; Tmax [10]: 2.7 h; AUC [11]: 61.1 ng·h/mL; IC50 [6]: 2.84 µM
CN(C)CCCOc1cc(C(=O)Nc2nccc3ccccc23)n(Cc2ccccc2)n1 | 1.31 | 80% | 
CN(C)CCCOc1cc(C(=O)Nc2ccccc2F)n(Cc2ccccc2)n1 | 1.02 | 58% | 
COc1ccc(NC(=O)c2cc(OCCCN(C)C)nn2Cc2ccccc2)cc1Cl | 0.88 | 93% | bioavailability [1]: 11%; Cmax [2]: 5.4 ng/mL; Tmax [3]: 4.5 h; AUC [4]: 32.6 ng·h/mL; IC50 [6]: 2.63 µM
CN(C)CCCOc1cc(C(=O)Nc2ccc(Cl)cc2F)n(Cc2ccccc2)n1 | 0.91 | 96% | 
COc1cccc(NC(=O)c2cc(OCCCN(C)C)nn2Cc2ccccc2)c1 | 0.74 | 96% | 
COc1ccc(-c2ccccc2)cc1NC(=O)c1cc(OCCCN(C)C)nn1Cc1ccccc1 | 0.86 | 95% | bioavailability [1]: 22%; Cmax [2]: 18 ng/mL; Tmax [3]: 7.3 h; AUC [4]: 130 ng·h/mL; IC50 [6]: 2.76 µM
CN(C)CCCOc1nn(Cc2ccccc2)c2ccccc12 [BENZYDAMINE] |  |  | EC50 [12]: 1.02 µM
CN(C)CCCOc1cc(C(=O)Nc2ccn(-c3ccccc3)n2)n(Cc2ccccc2)n1 | 0.71 | 75% | 
CN(C)CCCOc1cc(C(=O)Nc2nc3c(s2)CCCC3)n(Cc2ccccc2)n1 | 0.85 | 92% | 
CN(C)CCCOc1cc(C(=O)Nc2nccs2)n(Cc2ccccc2)n1 | 1.06 | 27% | 
CN(C)CCCOc1cc(C(=O)Nc2cccc(Cl)c2)n(Cc2ccccc2)n1 | 0.93 | 95% | 
CN(C)CCCOc1cc(C(=O)Nc2ccc(-c3csnn3)cc2)n(Cc2ccccc2)n1 | 0.81 | 96% | 
CN(C)CCCOc1cc(C(=O)Nc2cccc(F)c2)n(Cc2ccccc2)n1 | 0.87 | 95% | 
CN(C)CCCOc1cc(C(=O)Nc2ccc3[nH]ccc3c2)n(Cc2ccccc2)n1 | 0.91 | 66% | 
